The test addresses T1, human GPR131 (Homo sapiens, UniProt Q8TDU6).
T1 construct: expressed in transfected cells
T1 sequence (Q8TDU6 1-330): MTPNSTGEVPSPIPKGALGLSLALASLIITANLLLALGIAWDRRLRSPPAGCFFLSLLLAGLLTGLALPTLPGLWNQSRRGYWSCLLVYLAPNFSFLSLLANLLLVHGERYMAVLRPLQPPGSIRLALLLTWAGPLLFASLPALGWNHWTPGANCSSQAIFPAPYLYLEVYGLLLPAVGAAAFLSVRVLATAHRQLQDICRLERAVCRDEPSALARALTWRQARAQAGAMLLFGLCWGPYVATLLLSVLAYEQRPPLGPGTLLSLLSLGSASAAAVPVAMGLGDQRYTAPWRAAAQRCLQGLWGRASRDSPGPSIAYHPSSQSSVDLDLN
Description: Stimulation of cAMP in stable cell line expressing human GPR131 (FRET cAMP kit). The format is cell-based. Particulars: 0.5 h; 1.1 μM compound, relative to maximal stimulatory activity of lithocholic acid at 3.3 μM; 30 minutes at 37° C.; read-out: Percent Activity @ 1.1 μM (of 3.3 uM LCA) (%). As for the experimental part:
This assay was developed using a stable cell line expressing human GPR131.
To measure cAMP activity in response to GPR131 agonists, GPR131 cells suspended in DMEM/F12 medium with 1 mM IBMX were seeded in 384 well plates at 5000 cells per well. After incubating with test compounds at 37° C. for 30 minutes cAMP was measured using a fluorescene resonance energy transfer cAMP kit from Cis Bio (Bedford, Mass.) according to the manufacturer's instructions. Briefly, cells were lysed, and cAMP levels determined by competitive immunoassay using D2 labeled cAMP, and europium cryptate tagged anti cAMP antibody. Decreases in the FRET signal (fluorescence ratio (665 nm/620 […]) correspond to increases in intracellular cAMP levels.
Activities of test compounds in Table 1 below are expressed as % activity at 1.1 μM compound compared to the maximal stimulatory activity of lithocholic acid (LCA) (determined at 3.3 μM LCA)
Turning to `Cc1nn(C)cc1CN(C)Cc1cnc(SCc2c(F)ccc(F)c2F)n1-c1ccc(F)cc1` [Compound 506, 1-(1,3-Dimethyl-1H-pyrazol-4-yl)-N-((1-(4-fluorophenyl)-2-((2,3,6-trifluorobenzyl)thio)-1H-imidazol-5-yl)methyl)-N-methylmethanamine], the activation at 1.1 µM amounted to 100%.
In the case of `COc1ccc(CN(C)C(=O)c2cnc(SCc3c(F)ccc(F)c3F)n2-c2ccc(F)cc2)cc1OC` [Compound 507, N-(3,4-Dimethoxybenzyl)-1-(4-fluorophenyl)-N-methyl-2-((2,3,6-trifluorobenzyl)thio)-1H-imidazole-5-carboxamide], the activation at 1.1 µM turned out to be 93%.
With `Cc1nn(C)cc1CNC(=O)c1cnc(SCc2c(F)ccc(F)c2F)n1-c1ccc(F)cc1` [Compound 508, N-((1,3-Dimethyl-1H-pyrazol-4-yl)methyl)-1-(4-fluorophenyl)-2-((2,3,6-trifluorobenzyl)thio)-1H-imidazole-5-carboxamide] the figure was 82%.
With `CN(Cc1ccncc1)C(=O)c1cnc(SCc2c(F)ccc(F)c2F)n1-c1ccc(F)cc1` [Compound 518, 1-(4-Fluorophenyl)-N-methyl-N-(pyridin-4-ylmethyl)-2-((2,3,6-trifluorobenzyl)thio)-1H-imidazole-5-carboxamide] the figure was 100%.
With `CCN(Cc1cn(C)nc1C)C(=O)c1cnc(SCc2c(F)ccc(F)c2F)n1-c1ccc(F)cc1` [Compound 519, N-((1,3-Dimethyl-1H-pyrazol-4-yl)methyl)-N-ethyl-1-(4-fluorophenyl)-2-((2,3,6-trifluorobenzyl)thio)-1H-imidazole-5-carboxamide] the figure was 100%; with `CN(Cc1cnn(C)c1)C(=O)c1cnc(SCc2c(F)ccc(F)c2F)n1-c1ccc(F)cc1` [Compound 520, 1-(4-Fluorophenyl)-N-methyl-N-((1-methyl-1H-pyrazol-4-yl)methyl)-2-((2,3,6-trifluorobenzyl)thio)-1H-imidazole-5-carboxamide], 98%.
On to `Cc1nc(C)c(CN(C)C(=O)c2cnc(SCc3c(F)ccc(F)c3F)n2-c2ccc(F)cc2)s1` [Compound 522, N-((2,4-Dimethylthiazol-5-yl)methyl)-1-(4-fluorophenyl)-N-methyl-2-((2,3,6-trifluorobenzyl)thio)-1H-imidazole-5-carboxamide], for which the activation at 1.1 µM came out at 100%.
With `Cc1nn(C)cc1CN(C)C(=O)c1cnc(CCc2c(F)ccc(F)c2F)n1-c1ccc(F)cc1` [Compound 523, N-((1,3-Dimethyl-1H-pyrazol-4-yl)methyl)-1-(4-fluorophenyl)-N-methyl-2-(2,3,6-trifluorophenethyl)-1H-imidazole-5-carboxamide] the figure was 96%.
With `Cc1nn(C)cc1CN(C)C(=O)c1cnc(SCC(=O)c2ccccc2)n1-c1ccc(F)cc1` [Compound 525, N-((1,3-Dimethyl-1H-pyrazol-4-yl)methyl)-1-(4-fluorophenyl)-N-methyl-2-((2-oxo-2-phenylethyl)thio)-1H-imidazole-5-carboxamide] the figure was 96%; with `Cc1nn(C)cc1C(C)N(C)C(=O)c1cnc(SCc2c(F)ccc(F)c2F)n1-c1ccc(F)cc1` (stereo not drawn) [Compound 526, N-(1-(1,3-Dimethyl-1H-pyrazol-4-yl)ethyl)-1-(4-fluorophenyl)-N-methyl-2-((2,3,6-trifluorobenzyl)thio)-1H-imidazole-5-carboxamide], 96%; with `CN(Cc1ccncc1)C(=O)c1cnc(CCc2c(F)ccc(F)c2F)n1-c1ccc(F)cc1` [Compound 528, 1-(4-Fluorophenyl)-N-methyl-N-(pyridin-4-ylmethyl)-2-(2,3,6-trifluorophenethyl)-1H-imidazole-5-carboxamide], 95%.
With `Fc1ccc(-n2c(COCc3ccncc3)cnc2SCc2c(F)ccc(F)c2F)cc1` [Compound 530, 4-(((1-(4-Fluorophenyl)-2-((2,3,6-trifluorobenzyl)thio)-1H-imidazol-5-yl)methoxy)methyl)pyridine] the figure was 100%; with `Cc1nn(C)cc1CNCc1cnc(SCc2c(F)ccc(F)c2F)n1-c1ccc(F)cc1` [Compound 531, 1-(1,3-Dimethyl-1H-pyrazol-4-yl)-N-((1-(4-fluorophenyl)-2-((2,3,6-trifluorobenzyl)thio)-1H-imidazol-5-yl)methyl)methanamine], 84%; with `Cc1nn(C)cc1CN(C)C(=O)c1cnc(SCc2c(F)cccc2Cl)n1-c1ccc(F)cc1` [Compound 532, 2-((2-Chloro-6-fluorobenzyl)thio)-N-((1,3-dimethyl-1H-pyrazol-4-yl)methyl)-1-(4-fluorophenyl)-N-methyl-1H-imidazole-5-carboxamide], 100%.
`CN(Cc1ccncc1)C(=O)c1cnc(SCc2c(F)cccc2Cl)n1-c1ccc(F)cc1` [Compound 533, 2-((2-Chloro-6-fluorobenzyl)thio)-1-(4-fluorophenyl)-N-methyl-N-(pyridin-4-ylmethyl)-1H-imidazole-5-carboxamide]: the activation at 1.1 µM amounted to 100%.
With `CN(Cc1ccncc1)C(=O)c1cnc(CCc2ccccc2F)n1-c1ccc(F)cc1` [Compound 538, 2-(2-Fluorophenethyl)-1-(4-fluorophenyl)-N-methyl-N-(pyridin-4-ylmethyl)-1H-imidazole-5-carboxamide] the figure was 90%; with `O=C(c1cnc(SCc2c(F)cccc2Cl)n1-c1ccc(F)cc1)N1CCCC1c1ccncc1` (stereo not drawn) [Compound 539, (2-((2-Chloro-6-fluorobenzyl)thio)-1-(4-fluorophenyl)-1H-imidazol-5-yl)(2-(pyridin-4-yl)pyrrolidin-1-yl)methanone], 95%.
With `Cc1nn(C)cc1CN(C)C(=O)c1cnc(SCc2c(F)cc(C(=O)OC(C)(C)C)cc2F)n1-c1ccc(F)cc1` [Compound 542, tert-butyl 4-(((5-(((1,3-Dimethyl-1H-pyrazol-4-yl)methyl)(methyl)carbamoyl)-1-(4-fluorophenyl)-1H-imidazol-2-yl)thio)methyl)-3,5-difluorobenzoate] the figure was 100%; with `Cc1nn(C)cc1CN(C)C(=O)c1cnc(SCc2ccccc2Cl)n1-c1ccc(F)cc1` [Compound 549, 2-((2-Chlorobenzyl)thio)-N-((1,3-dimethyl-1H-pyrazol-4-yl)methyl)-1-(4-fluorophenyl)-N-methyl-1H-imidazole-5-carboxamide], 98%; with `Cc1cc(CN(C)C(=O)c2cnc(SCc3ccccc3Cl)n2-c2ccc(F)cc2)ccn1` [Compound 550, 2-((2-Chlorobenzyl)thio)-1-(4-fluorophenyl)-N-methyl-N-((2-methylpyridin-4-yl)methyl)-1H-imidazole-5-carboxamide], 98%.
With `Cc1nn(C)cc1CN(C)C(=O)c1cnc(SCc2ncccc2Cl)n1-c1ccc(F)cc1` [Compound 551] the figure was 99%; with `Cc1nc(CSc2ncc(C(=O)N(C)Cc3cn(C)nc3C)n2-c2ccc(F)cc2)no1` [Compound 552, N-((1,3-Dimethyl-1H-pyrazol-4-yl)methyl)-1-(4-fluorophenyl)-N-methyl-2-(((5-methyl-1,2,4-oxadiazol-3-yl)methyl)thio)-1H-imidazole-5-carboxamide], 99%.
In the case of `Cc1nn(C)cc1CN(C)C(=O)c1cnc(SCc2c(F)cccc2Cl)n1-c1ccc(Cl)cc1` [Compound 553, 2-((2-Chloro-6-fluorobenzyl)thio)-1-(4-chlorophenyl)-N-((1,3-dimethyl-1H-pyrazol-4-yl)methyl)-N-methyl-1H-imidazole-5-carboxamide], the activation at 1.1 µM was determined as 100%.
On to `Cc1nn(C)cc1CN(C)C(=O)c1cnc(SCc2c(F)cccc2Cl)n1-c1ccccc1` [Compound 554, 2-((2-Chloro-6-fluorobenzyl)thio)-N-((1,3-dimethyl-1H-pyrazol-4-yl)methyl)-N-methyl-1-phenyl-1H-imidazole-5-carboxamide], for which the activation at 1.1 µM stood at 99%.
With `CN(Cc1ccncc1)C(=O)c1cnc(SCc2c(F)cccc2Cl)n1-c1ccccc1` [Compound 555, 2-((2-Chloro-6-fluorobenzyl)thio)-N-methyl-1-phenyl-N-(pyridin-4-ylmethyl)-1H-imidazole-5-carboxamide] the figure was 100%.
Consider `CN(Cc1ccncc1)C(=O)c1cnc(SCc2c(F)cccc2Cl)n1-c1ccc(Cl)cc1` [Compound 556, 2-((2-Chloro-6-fluorobenzyl)thio)-1-(4-chlorophenyl)-N-methyl-N-(pyridin-4-ylmethyl)-1H-imidazole-5-carboxamide], for which the activation at 1.1 µM was 99%.
With `CN(Cc1ccncc1)C(=O)c1cnc(SCc2c(Cl)cccc2Cl)n1-c1ccc(F)cc1` [Compound 561, 2-((2,6-Dichlorobenzyl)thio)-1-(4-fluorophenyl)-N-methyl-N-(pyridin-4-ylmethyl)-1H-imidazole-5-carboxamide] the figure was 95%.

These data come from patent US8703776B2 (Cymabay Therapeutics, Inc., priority 2011, dated 2014).
